# Laboratory results as given in US12037415B2, “Peptide and pharmaceutical composition for treating an eye disease comprising the same as an active pharmaceutical ingredient” (YuYu Pharma, Inc., priority 2017, dated 2024).
# Non-standard residues stand in square brackets, D forms with d. Residues, ends and D or L forms follow the SMILES beside them. No end group written: not given here. ξ: configuration not given here. cisHyp = O=C(O)[C@@H]1C[C@H](O)CN1; Hyp = O=C(O)[C@@H]1C[C@@H](O)CN1; Ile(3ξ) = CCC(C)[C@H](N)C(=O)O; pGlu = O=C1CC[C@@H](C(=O)O)N1; Sar = CNCC(=O)O
# Tests used:
# [1] = test system: cornea of rats with dry eye syndrome (ELGE); assay: Corneal permeability of fluorescent dye (corneal damage) in rats with ELGE-induced dry eye syndrome; assay type: in vivo, rat; conditions: 0.3% solution, day 14 after the administration
# Excerpt: (§1) In order to evaluate the eye protection effect on dry eye syndrome by YDE-001 to YDE-028 prepared in Working Example 1, a total of 320 Sprague-Dawley-type male rats (OrientBio, Seungnam, Korea) were adapted for 7 days. Thereafter, dry eye syndrome was induced in 264 test rats through extraorbital lacrimal gland excision (hereinafter, ELGE). 8 test rats without the eye abnormality were subjected to a sham operation as a control group.
# (§2) The rats were systemically anesthetized by inhaling a mixed gas of 2% to 3% of isoflurane (Hana Pharm. Co., Hwasung, Korea), 70% of N2O, and 28.6% of O2 using a rodent anesthesia machine (Surgivet, Waukesha, Wis., USA) and a ventilator (Model 687, Harvard Apparatus, Cambridge, UK). Thereafter, the extraorbital lacrimal gland located in the subdermal area above the masseter muscle and under the optic nerve was excised through a transverse incision in a size of 10 mm on the anterior part of the left ear tragus. The skin was sutured by a general method. […] After 6 days following the ELGE operation, confirmation was performed through the Schirmer test by measuring the amount of tear secretion whether dry eye syndrome had been induced. Meanwhile, each rat of the control group with the sham operation was checked for the presence and location of the extraorbital lacrimal gland through a skin incision, and the skin was then sutured without the excision thereof (FIG. 134).
# (§3) In addition, in order to evaluate the eye protection effect on dry eye syndrome by YDE-029 to YDE-043 prepared in Working Example 1, a total of 200 Sprague-Dawley-type male rats (OrientBio, Seungnam, Korea) were adapted for 7 days. Dry eye syndrome was induced in 165 test rats through the ELGE. 8 test rats without the eye abnormality were subjected to the sham operation as a control group. The ELGE was carried out as described above.
# (§4) For YDE-001 to YDE-028, YY-102 and the 28 YDE-series were each dissolved in physiological saline at a concentration of 3 mg/ml and administered at a dose of 5 μl/eye at 9:30 am and 3:30 pm daily for 14 days after 7 days from the ELGE operation for a total of 28 times. The DS solution was dissolved in physiological saline at a concentration of 30 mg/ml and administered at a dose of 5 μl/eye twice a day for 14 days after 7 days from the ELGE operation for a total of 28 times. For the sham control and the ELGE control groups, the same stimulation as the administration was applied. In order to prevent excessive eye dryness, the same volume of physiological saline was applied in the same manner in place of the test substances.
# as §4, with “Further, For YDE-029” for “For YDE-001”, “Further, For YDE-029 to YDE-043,” for “For YDE-001 to YDE-028,”, “YDE-029 to YDE-043, YY-102 and” for “YDE-001 to YDE-028, YY-102 and”, “and the 15 YDE-series were” for “and the 28 YDE-series were”, “the test substances (FIG. 137).” for “the test substances.”
# After YDE-001 to YDE-028 were each administered to the eyes […], the changes in the corneal permeability were checked.
# In order to measure the corneal permeability, Zolethyl 50™ (Virbac Lab., Carros, France), an animal anesthetic, was intraperitoneally injected at a dose of 25 mg/kg. Thereafter, saline containing a 1% (v/v) fluorescent solution (fluorescein sodium salt, Tokyo Kasei Kogyo Co., Tokyo, Japan) was applied to the eyes at a dose of 5 μl/eye. The eyes thus treated were closed and fixed with a tape. After 1 hour, the remaining fluorescent solution was removed using a cotton swab (FIG. 142). […]
# [2] = test system: rats with dry eye syndrome (extraorbital lacrimal gland excision, ELGE); assay: Amount of tear secretion (Schirmer test, cobalt chloride paper) in rats with ELGE-induced dry eye syndrome; assay type: in vivo, rat; conditions: for Amount of tear secretion as compared with the ELGE control group: 0.3% solution (DS 3%), administration for 14 days
# Excerpt: as §1, §2, §3, §4
# as §4, with “Further, For YDE-029” for “For YDE-001”, “Further, For YDE-029 to YDE-043,” for “For YDE-001 to YDE-028,”, “YDE-029 to YDE-043, YY-102 and” for “YDE-001 to YDE-028, YY-102 and”, “and the 15 YDE-series were” for “and the 28 YDE-series were”, “the test substances (FIG. 137).” for “the test substances.”
# After 6 days from the ELGE surgery, the changes in the amount of tear secretion were measured at day 7 and day 14 after the administration of YDE-001 to YDE-043. The amount of tear secretion was measured by the […] travel distance of tears absorbed by cobalt chloride paper in a size of 1×15 mm (Toyo Roshi Kaisha, Japan).
# The cobalt chloride paper was placed in the lateral canthus of a rat for 60 seconds to absorb tears (FIG. 139). The length of the area absorbed from the corner of the cobalt chloride paper was measured with an electronic digital caliper (Mytutoyo, Tokyo, Japan) (FIG. 138).
# [3] = Stability in aqueous solution, amount of related substances under long-term storage conditions; assay type: physicochemical; conditions: glass vial, 25° C., 75% RH
# Method: In order to confirm the stability of each test substance in an aqueous solution, […] of each sample was dissolved in 1 ml of water to a concentration of 1 mg/ml, which was then charged to a glass vial, plugged with a rubber cap, sealed with an aluminum cap, and stored under long-term storage conditions (25° C., 75% RH). The stability of the test substance was evaluated by measuring the amount of related substances at the time of one week, two weeks, four weeks, eight weeks, and twelve weeks under the long-term storage conditions.
# [4] = study of YDE-001 to YDE-028 (Table 16)
# [5] = study of YDE-029 to YDE-043 (Table 17)
Compound,"Permeability of fluorescent dye (%) [1, 4] [%]",Amount of tear secretion as compared with the ELGE control group ([2]; study of YDE-001 to YDE-028),Amount of related substances (%; after 12 weeks) [3] [%],"Tear Volumes, Day 7 ([2]; ELGE rats, 0.3% solution, 5 μl/eye twice daily, day 7 of administration, study of YDE-001 to YDE-028 (Table 14)) [mm^3]","Tear Volumes, Day 14 ([2]; ELGE rats, 0.3% solution, 5 μl/eye twice daily, day 14 of administration, study of YDE-001 to YDE-028 (Table 14)) [mm^3]","Permeability of fluorescent dye (%) [1, 5] [%]",Amount of tear secretion as compared with the ELGE control group ([2]; study of YDE-029 to YDE-043)
"CNC(=O)C[C@H](NC(=O)[C@H](CCC(N)=O)NC(=O)CNC(=O)[C@@H]1C[C@@H](O)CN1)C(=O)NCC(=O)N[C@@H](CC(C)C)C(=O)N[C@@H](C)C(=O)NCC(=O)N1CCC[C@H]1C(=O)N[C@@H](CCCCN)C(=O)O [YDE-028, HyP-Gly-Gln-Asn(Me)-Gly-Leu-Ala-Gly-Pro-Lys] (H-[Hyp]GQD(NHMe)GLAGPK-OH)",41.17 ± 10.25,did not show any significant changes,1.15,,,,
"YDE-025: peptide of SEQ ID NO: 31, the compound represented by Formula 10 ([Hyp]GQD[Sar]LAGPK; ends and bridges not checked)",47.10 ± 11.45,did not show any significant changes,5.17,3.21 ± 0.72,4.72 ± 2.19,,
"CC(C)C[C@H](NC(=O)CNC(=O)[C@@H](NC(=O)[C@H](CCC(N)=O)NC(=O)CNC(=O)[C@@H]1C[C@@H](O)CN1)C(C)C)C(=O)N[C@@H](C)C(=O)NCC(=O)N1CCC[C@H]1C(=O)N[C@@H](CCCCN)C(=O)O [YDE-009, HyP-Gly-Gln-Val-Gly-Leu-Ala-Gly-Pro-Lys] (H-[Hyp]GQVGLAGPK-OH)",41.50 ± 7.86,did not show any significant changes,4.71,,,,
"CC(C)C[C@H](NC(=O)[C@H](Cc1c[nH]c2ccccc12)NC(=O)[C@H](CC(=O)O)NC(=O)[C@H](CCC(N)=O)NC(=O)CNC(=O)[C@@H]1C[C@@H](O)CN1)C(=O)N[C@@H](C)C(=O)NCC(=O)N1CCC[C@H]1C(=O)N[C@@H](CCCCN)C(=O)O [YDE-021, HyP-Gly-Gln-Asp-Trp-Leu-Ala-Gly-Pro-Lys] (H-[Hyp]GQDWLAGPK-OH)",37.00 ± 10.49,did not show any significant changes,21.33,,,,
"CC(C)C[C@H](NC(=O)[C@H](Cc1ccccc1)NC(=O)[C@H](CC(=O)O)NC(=O)[C@H](CCC(N)=O)NC(=O)CNC(=O)[C@@H]1C[C@@H](O)CN1)C(=O)N[C@@H](C)C(=O)NCC(=O)N1CCC[C@H]1C(=O)N[C@@H](CCCCN)C(=O)O [YDE-019, HyP-Gly-Gln-Asp-Phe-Leu-Ala-Gly-Pro-Lys] (H-[Hyp]GQDFLAGPK-OH)",40.39 ± 12.57,did not show any significant changes,13.43,,,,
"CC(C)C[C@H](NC(=O)[C@H](CC(C)C)NC(=O)[C@H](CC(=O)O)NC(=O)[C@H](CCC(N)=O)NC(=O)CNC(=O)[C@@H]1C[C@@H](O)CN1)C(=O)N[C@@H](C)C(=O)NCC(=O)N1CCC[C@H]1C(=O)N[C@@H](CCCCN)C(=O)O [YDE-017, HyP-Gly-Gln-Asp-Leu-Leu-Ala-Gly-Pro-Lys] (H-[Hyp]GQDLLAGPK-OH)",39.76 ± 7.42,did not show any significant changes,11.88,,,,
"CCC(C)[C@H](NC(=O)[C@H](CCC(N)=O)NC(=O)CNC(=O)[C@@H]1C[C@@H](O)CN1)C(=O)NCC(=O)N[C@@H](CC(C)C)C(=O)N[C@@H](C)C(=O)NCC(=O)N1CCC[C@H]1C(=O)N[C@@H](CCCCN)C(=O)O (stereo partly drawn) [YDE-010, HyP-Gly-Gln-Ile-Gly-Leu-Ala-Gly-Pro-Lys] (H-[Hyp]GQ[Ile(3ξ)]GLAGPK-OH)",49.29 ± 12.06,did not show any significant changes,4.39,,,,
"COC(=O)C[C@H](NC(=O)[C@H](CCC(N)=O)NC(=O)CNC(=O)[C@@H]1C[C@@H](O)CN1)C(=O)NCC(=O)N[C@@H](CC(C)C)C(=O)N[C@@H](C)C(=O)NCC(=O)N1CCC[C@H]1C(=O)N[C@@H](CCCCN)C(=O)O [YDE-027, HyP-Gly-Gln-Asp(Me)-Gly-Leu-Ala-Gly-Pro-Lys] (H-[Hyp]GQD(OMe)GLAGPK-OH)",50.24 ± 11.94,did not show any significant changes,12.74,,,,
"CC(C)C[C@H](NC(=O)[C@H](Cc1ccc(O)cc1)NC(=O)[C@H](CC(=O)O)NC(=O)[C@H](CCC(N)=O)NC(=O)CNC(=O)[C@@H]1C[C@@H](O)CN1)C(=O)N[C@@H](C)C(=O)NCC(=O)N1CCC[C@H]1C(=O)N[C@@H](CCCCN)C(=O)O [YDE-020, HyP-Gly-Gln-Asp-Tyr-Leu-Ala-Gly-Pro-Lys] (H-[Hyp]GQDYLAGPK-OH)",47.84 ± 13.47,did not show any significant changes,21.54,,,,
"CC(C)C[C@H](NC(=O)CNC(=O)[C@H](CC(C)C)NC(=O)[C@H](CCC(N)=O)NC(=O)CNC(=O)[C@@H]1C[C@H](O)CN1)C(=O)N[C@@H](C)C(=O)NCC(=O)N1CCC[C@H]1C(=O)N[C@@H](CCCCN)C(=O)O [YDE-034, Hyp(2S, 4S)-Gly-Gln-Leu-Gly-Leu-Ala-Gly-Pro-Lys] (H-[cisHyp]GQLGLAGPK-OH)",,,,,,32.17 ± 12.94,did not show any significant changes
"CC(C)C[C@H](NC(=O)[C@H](Cc1c[nH]cn1)NC(=O)[C@H](CC(=O)O)NC(=O)[C@H](CCC(N)=O)NC(=O)CNC(=O)[C@@H]1C[C@@H](O)CN1)C(=O)N[C@@H](C)C(=O)NCC(=O)N1CCC[C@H]1C(=O)N[C@@H](CCCCN)C(=O)O [YDE-022, HyP-Gly-Gln-Asp-His-Leu-Ala-Gly-Pro-Lys] (H-[Hyp]GQDHLAGPK-OH)",47.82 ± 10.01,did not show any significant changes,19.23,,,,
"CC(C)C[C@H](NC(=O)CNC(=O)[C@H](CC(C)C)NC(=O)[C@H](CCC(N)=O)NC(=O)CNC(=O)[C@@H]1CCC(=O)N1)C(=O)N[C@@H](C)C(=O)NCC(=O)N1CCC[C@H]1C(=O)N[C@@H](CCCCN)C(=O)O [YDE-036, (5-oxo)Pro-Gly-Gln-Leu-Gly-Leu-Ala-Gly-Pro-Lys] ([pGlu]GQLGLAGPK-OH)",,,,,,57.87 ± 22.91,did not show any significant changes
